Results taken from US20200361871A1 (Enterprise Therapeutics Ltd., priority 2018, published 2020).

Target: human TMEM16A (TMEM16Aabc variant) (Homo sapiens, UniProt Q5XXA6, DEL476-501, form not given)
Experiment: Automated whole-cell patch clamp (Qpatch) TMEM16A potentiator assay in FRT cells stably expressing human TMEM16A
Format: cell-based
Conditions: for % Potentiation @ 3.33 μM Avg: 3.33 μM solution of test compound, percentage increase of baseline TMEM16A current; for EC50: calculated EC50, Qpatch TMEM16A current at +70 mV
Procedure, shortened: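 FRT cells stably expressing human TMEM16Aabc were recorded by automated whole-cell patch clamp, with intracellular Ca2+ buffered for ~EC20 activation, holding −70 mV and step to +70 mV at 0.05 Hz. Compound was applied cumulatively, 5 min per concentration. Peak current increase as % of baseline was fitted to give EC50 and maximum efficacy.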

human TMEM16A (TMEM16Aabc variant), sequence (Q5XXA6 with tags, fused parts or gaps DEL476-501): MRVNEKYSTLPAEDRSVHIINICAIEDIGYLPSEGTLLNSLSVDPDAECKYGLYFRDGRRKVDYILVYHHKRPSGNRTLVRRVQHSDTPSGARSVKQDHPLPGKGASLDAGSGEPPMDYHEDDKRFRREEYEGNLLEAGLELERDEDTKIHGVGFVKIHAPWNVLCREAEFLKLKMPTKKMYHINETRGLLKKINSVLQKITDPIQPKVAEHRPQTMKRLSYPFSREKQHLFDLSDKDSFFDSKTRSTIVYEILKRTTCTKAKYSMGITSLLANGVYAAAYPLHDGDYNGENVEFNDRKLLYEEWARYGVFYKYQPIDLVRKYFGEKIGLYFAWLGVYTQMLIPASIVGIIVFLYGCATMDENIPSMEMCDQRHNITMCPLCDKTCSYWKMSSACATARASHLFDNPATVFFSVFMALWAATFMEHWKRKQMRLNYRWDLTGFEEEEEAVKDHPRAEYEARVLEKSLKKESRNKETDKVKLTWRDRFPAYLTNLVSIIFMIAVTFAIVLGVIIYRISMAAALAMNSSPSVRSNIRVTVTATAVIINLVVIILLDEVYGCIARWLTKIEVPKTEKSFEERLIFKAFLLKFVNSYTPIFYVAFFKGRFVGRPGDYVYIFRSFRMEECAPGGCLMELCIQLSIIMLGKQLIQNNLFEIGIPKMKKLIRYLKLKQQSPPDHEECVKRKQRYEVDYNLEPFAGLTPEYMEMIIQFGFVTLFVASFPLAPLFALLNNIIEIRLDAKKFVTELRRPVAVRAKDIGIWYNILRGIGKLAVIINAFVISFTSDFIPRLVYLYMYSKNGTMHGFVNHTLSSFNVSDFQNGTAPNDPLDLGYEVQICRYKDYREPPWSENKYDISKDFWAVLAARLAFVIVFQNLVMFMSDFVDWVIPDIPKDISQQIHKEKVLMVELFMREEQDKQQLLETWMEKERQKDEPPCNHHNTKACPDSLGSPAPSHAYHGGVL

| SMILES | % Potentiation @ 3.33 μM Avg | EC50 |
| --- | --- | --- |
| O=C(Cc1cc(Cl)ccc1O)Nc1ccnc(C(=O)N[C@H]2CCCC[C@@H]2O)c1 (single isomer, unassigned) [Example 31.3a, 4-[[2-(5-Chloro-2-hydroxy-phenyl)acetyl]amino]-N-[(1S,2S)-2-hydroxycyclohexyl]pyridine-2-carboxamide or 4-[[2-(5-Chloro-2-hydroxy-phenyl)acetyl]amino]-N-[(1R,2R)-2-hydroxycyclohexyl]pyridine-2-carboxamide] | 238% | 550 nM |
| CC(C)(C)NC(=O)c1cc(NC(=O)CC2C3CC4CC(C3)CC2C4)ccn1 (stereo not shown) [Example 5.1, 4-[[2-(2-Adamantyl)acetyl]amino]-N-tert-butyl-pyridine-2-carboxamide] | 140% | 870 nM |
| CC(C)(C)NC(=O)c1cc(NC(=O)Cc2ccccc2Cl)ccn1 [Example 5.20, N-tert-Butyl-4-[[2-(2-chlorophenyl)acetyl]amino]pyridine-2-carboxamide] | 221% | 570 nM |
| O=C(Cc1cc(Cl)ccc1O)Nc1ccnc(C(=O)N[C@@H]2CCC[C@H]2O)c1 [Example 33, 4-[[2-(5-Chloro-2-hydroxy-phenyl)acetyl]amino]-N-[(1R,2R)-2-hydroxycyclopentyl] pyridine-2-carboxamide] | 245% | 240 nM |
| CC(C)(C)NC(=O)c1cc(NC(=O)Cc2ccc(Cl)c(F)c2)ccn1 [Example 5.18, N-tert-Butyl-4-[[2-(4-chloro-3-fluoro-phenyl)acetyl]amino]pyridine-2-carboxamide] | 79% | 460 nM |
| O=C(Cc1cc(Cl)ccc1O)Nc1cccc(C(=O)NC23CC4CC(CC(C4)C2)C3)c1 [Example 1.2, N-(1-Adamantyl)-3-[[2-(5-chloro-2-hydroxy-phenyl)acetyl]amino]benzamide] | 170% | 540 nM |
| CC(C)(C#N)NC(=O)c1cc(NC(=O)CC2CCC(F)(F)CC2)ccn1 [Example 83.10, N-(1-Cyano-1-methyl-ethyl)-4-[[2-(4,4-difluorocyclohexyl)acetyl]amino]pyridine-2-carboxamide] | 62% |  |
| CC1(NC(=O)c2cccc(NC(=O)Cc3cc(Cl)ccc3O)c2)CCN(C(=O)OC(C)(C)C)CC1 [Example 8.2, tert-Butyl 4-[[3-[[2-(5-chloro-2-hydroxy-phenyl)acetyl]amino]benzoyl]amino]-4-methyl-piperidine-1-carboxylate] | 169% | 1960 nM |
| O=C(Cc1ccccc1Cl)Nc1ccnc(C(=O)NC2CCOCC2)c1 [Example 23.9, 4-[[2-(2-Chlorophenyl)acetyl]amino]-N-tetrahydropyran-4-yl-pyridine-2-carboxamide] | 47% |  |
| CC(C)(C)NC(=O)c1cc(NC(=O)NCc2ccc(O)cc2)ccn1 [Example 65.4, N-tert-Butyl-4-[(4-hydroxyphenyl)methylcarbamoylamino]pyridine-2-carboxamide] | 10% |  |
| C[C@](C#N)(CO)NC(=O)c1cc(NC(=O)Cc2cc(Cl)ccc2O)ccn1 (single isomer, unassigned) [Example 46b, 4-[[2-(5-Chloro-2-hydroxy-phenyl)acetyl]amino]-N-[(1S)-1-cyano-2-hydroxy-1-methyl-ethyl]pyridine-2-carboxamide or 4-[[2-(5-chloro-2-hydroxy-phenyl)acetyl]amino]-N-[(1R)-1-cyano-2-hydroxy-1-methyl-ethyl]pyridine-2-carboxamide] | 215% |  |
| CCn1c(C(=O)Nc2ccnc(C(=O)NC(C)(C)C#N)c2)cc2ccccc21 [Example 83.18, N-[2-[(1-Cyano-1-methyl-ethyl)carbamoyl]-4-pyridyl]-1-ethyl-indole-2-carboxamide] | 16% |  |
